Results published in patent US9650332B1, “Prodrug of probucol and method for preparing the same” (priority 2016, dated 2017).

Test: Pharmacokinetic studies of the prodrugs of probucol in rats (oral gavage, plasma LC/MS/MS)
Type: in vivo
Conditions: male, Sprague Dawley, rat, 20 mg/kg prodrug by oral gavage, overnight fasting, analyte: prodrug; for AUC(0-t): read-out: AUC0-t of the prodrug in blood; for Cmax: read-out: Cmax of the prodrug in blood; for Tmax: read-out: tmax of the prodrug in blood
Protocol: Four different kinds of probucol's prodrugs were prepared based on the example 1, 2, 3 and 4 to evaluate their pharmacodynamic and pharmacokinetic characteristics in rats.
Three Sprague Dawley Male Rats were used in each experiment for each prodrug. The laboratory animal models are provided by Shanghai Super-B&K laboratory animal Corp. Ltd. (No. Of animal license SYXK(HU)2008-0016).
Weighed 20 mg sample and dissolved it with 1 ml ethanol. Then, in turn, added 1 ml Solutol HS15 and 8 ml pH4.63 acetate buffer to make the final solution with the concentration of 2 mg/ml. The left soup were saved to run quantitative analysis.
Three Sprague Dawley male rats were given the dose of […] (volume: 10 ml/kg) drugs by oral gavage under the condition of overnight fasting.
Blood (volume: 0.1 ml) was drawn at 0.5, 1.0, 2.0, 4.0, 6.0, 8.0, 24.0 hours pre-dose and post-dose respectively to all animal subjects. Saved the blood samples in heparinized tubes and then centrifuged them for 10 minutes at […] at 4° C. The separated plasma was stored at −20° C. All the process including blood collection and blood analysis should be conducted in low temperatures. Standard meals were provided after 2 hours of dosing.
API 4000 QTRAP LC/MS/MS (Applied Biosystems Corporation, US)
LC-20AD HPLC system (Shimadzu Corporation, Japan)
The prodrug and metabolite probucol were measured at the same time. Took 25 ul rat plasma that drawn at different time points after dosing, and then added 50 ul internal standard YX1162 (200 ng/ml, prepared by acetonitrile) and 175 ul acetonitrile, vortex mixed for 3 minutes, and then centrifuged at 13500 rpm for 10 minutes. Took 10 ul supernatant to run LC/MS/MS analysis.
The prodrug and metabolite probucol were measured at the same time. Took 25 ul rat blank plasma, then added 25 ul solution of standard series to make the drug concentration 1.00, 2.00, 5.00, 25.0, 100, 500, 2000, 20000 and 40000 ng/ml. Next, added 50 ul internal standard YX1162 (200 ng/ml, prepared by acetonitrile) and 150 ul acetonitrile, then followed the same protocol shown in 3.4.
Set plasma concentration as X-axis and the ratio of chromatographic peak areas for sample and internal standard as Y-axis, then used weighted least square method (w=1/x^2) to conduct linear regression analysis.

| AUC(0-t) [ng·h/mL] | Cmax [ng/mL] | Tmax [h] | Structure (SMILES) |
| --- | --- | --- | --- |
| 758 ± 204 | 218 ± 26 | 2.17 ± 1.31 | CCOC(=O)OCOc1c(C(C)(C)C)cc(SC(C)(C)Sc2cc(C(C)(C)C)c(O)c(C(C)(C)C)c2)cc1C(C)(C)C [Example 1] |
| 1070 ± 404 | 268 ± 56 | 2.37 ± 1.41 | CCOC(=O)OC(C)Oc1c(C(C)(C)C)cc(SC(C)(C)Sc2cc(C(C)(C)C)c(O)c(C(C)(C)C)c2)cc1C(C)(C)C (stereo not drawn) [Example 2] |
